The values that follow come from patent publication US7417156B2, “Orally active, antimalarial, anticancer, artemisinin-derived trioxane dimers” (Johns Hopkins University, priority 2002, dated 2008).

Data set [1] concerns chloroquine-sensitive P. falciparum (NF54). Description: Antimalarial activity in vitro, [3H]hypoxanthine incorporation. The data set is classed as cell-based. To be noted: read-out: IC50.
Data set [2] is described as follows: Stability in air (room temperature; accelerated aging at 60° C.). It is filed as physicochemical. From the text: The next step, shown in FIG. 2, in the production of the novel meso trioxane dimer 3 involves the substitution of the acetoxy group from the C-10 acetate 2 product to form the meso trioxane dimer 3 product. Inspiration for this bis-allylation of C-10 acetate 2 was based on the pioneering trioxane mono-allylations of Ziffer (Pu, Y. M.; Ziffer, H., Synthesis and Antimalarial Activities of 12β-Allyldeoxoartemisinin. J. Med. Chem. 1995, 38, 613-616) and O'Neill (O'Neill, et al., J. Med. Chem. 1999, 42, 5487-5493; and O'Neill, P. M., et al., J. Chem. Soc., Perkin Trans. 2001, 1, 2682-2689.) using allylsilane and based also on allylic bis-silane chemistry, see Rychnovsky, S. D., et. al., Tetrahedron Lett. 1999, 40, 41-44. The requisite allylic bis-silane is easily prepared in one step from the corresponding commercial allylic dichloride (Shown in FIG. 2); in the presence of fresh tin tetrachloride, the allylic bis-silane converts acetate 2 on gram scale into meso dimer 3, characterized by ^1H NMR spectroscopy as done before in structurally related trioxanes. This double substitution reaction undoubtedly proceeds sequentially via initial monoallylation, producing an intermediate C-10 allylic silane that then reacts with another molecule of trioxane acetate 2 to form the product dimer 3. […]

For data set [3] the following is noted: in vivo; cited from earlier work.
The conditions of data set [4]: rat liver microsomes; cited from earlier work. On the technique in general: Microsomes from liver hold many membrane-bound enzymes, among them those of drug oxidation.

What is called IC50 is the concentration at which inhibition is half-maximal. On to `C=C(CC1OC2OC3(C)CCC4C(C)CCC(C1C)C24OO3)CC1OC2OC3(C)CCC4C(C)CCC(C1C)C24OO3` (stereo not shown) [Compound 3, trioxane isobutene dimer], for which, in data set [1], the IC50 came out at 24 nM. Also, in data set [2], the “stability in air and light in words” value was “stable in air and light at room temperature for at least six months”.

On to `C[C@H]1[C@@H](O)O[C@@H]2O[C@@]3(C)CC[C@H]4[C@H](C)CC[C@@H]1[C@@]24OO3` [Compound 31, dihydroartemisinin], for which the half-life in plasma result in data set [3] is listed as “less than two hours”.

With `CCO[C@H]1O[C@@H]2O[C@@]3(C)CC[C@H]4[C@H](C)CC[C@@H]([C@H]1C)[C@@]24OO3` [arteether], the conversion into dihydroartemisinin result in data set [4] is listed as “rapidly converted”.
